We go through 9 molecules from ChEMBL document CHEMBL5335775, “Bioisosteric replacement of 1H-1,2,3-triazole with 1H-tetrazole ring enhances anti-leukemic activity of (5-benzylthiazol-2-yl)benzamides” (Eur J Med Chem, 2023).

Molecules are shown by their SMILES.

The test system of series [1] is K562. Description: Antiproliferative activity against human K562 cells assessed as inhibition of cell proliferation measured after 72 hrs by MTT assay. The format is functional, cell-based. Particulars: K562, 72 h. For orientation: Formazan colour is commonly taken as a measure of viable cells.
A short description of series [2]: Antiproliferative activity against human HaCaT cells assessed as inhibition of cell proliferation measured after 72 hrs by MTT assay. The format is toxicity, cell-based.
Series [3] is described as follows: Antiproliferative activity against NIH3T3 cells assessed as inhibition of cell proliferation measured after 72 hrs by MTT assay. The format is toxicity, cell-based. To be noted: mouse.
Series [4] can be described thus: Antiproliferative activity against J774.2 cells assessed as inhibition of cell proliferation measured after 72 hrs by MTT assay. The format is toxicity, cell-based. To be noted: mouse.
Series [5] relates to K562. Description: Anticancer activity against human K562 cells assessed as cell growth at 10^-5 M incubated for 48 hrs by SRB assay relative to control. The format is functional. Particulars: K562, 48 h, dose 1 10^-5M, read-out: Activity.
In another series the test system is NCI-H460. Description: Anticancer activity against human NCI-H460 cells assessed as cell growth at 10^-5 M incubated for 48 hrs by SRB assay relative to control. Type of series: functional. Particulars: NCI-H460, 48 h, dose 1 10^-5M, read-out: Activity. Background: In SRB staining, fixed cells bind dye roughly in proportion to their protein.
Another series concerns HCT-15. Description: Anticancer activity against human HCT-15 cells assessed as cell growth at 10^-5 M incubated for 48 hrs by SRB assay relative to control. The format is functional. To be noted: HCT-15, 48 h, dose 1 10^-5M, read-out: Activity.
The subject of a further series is KM12. Description: Anticancer activity against human KM12 cells assessed as cell growth at 10^-5 M incubated for 48 hrs by SRB assay relative to control. Type of series: functional. Particulars: KM12, 48 h, dose 1 10^-5M, read-out: Activity.
The test system of a further series is LOX IMVI. Description: Anticancer activity against human LOX IMVI cells assessed as cell growth at 10^-5 M incubated for 48 hrs by SRB assay relative to control. Type of series: functional. To be noted: dose 1 10^-5M, read-out: Activity.
The next series has as its system M14. Description: Anticancer activity against human M14 cells assessed as cell growth at 10^-5 M incubated for 48 hrs by SRB assay relative to control. Type of series: functional. Particulars: M14, 48 h, dose 1 10^-5M, read-out: Activity.
The next series has as its system MDA-MB-435. Description: Anticancer activity against human MDA-MB-435 cells assessed as cell growth at 10^-5 M incubated for 48 hrs by SRB assay relative to control. Type of series: functional. To be noted: MDA-MB-435, 48 h, dose 1 10^-5M, read-out: Activity.
For the next series, the system named is UACC-62. Description: Anticancer activity against human UACC-62 cells assessed as cell growth at 10^-5 M incubated for 48 hrs by SRB assay relative to control. The format is functional. To be noted: UACC-62, 48 h, dose 1 10^-5M, read-out: Activity.
The subject of a further series is ACHN. Description: Anticancer activity against human ACHN cells assessed as cell growth at 10^-5 M incubated for 48 hrs by SRB assay relative to control. Particulars: dose 1 10^-5M, read-out: Activity. Type of series: functional.
The test system of the next series is CAKI-1. Description: Anticancer activity against human CAKI-1 cells assessed as cell growth at 10^-5 M incubated for 48 hrs by SRB assay relative to control. Type of series: functional. Particulars: CAKI-1, 48 h, dose 1 10^-5M, read-out: Activity.
Another series deals with MCF7. Description: Anticancer activity against human MCF7 cells assessed as cell growth at 10^-5 M incubated for 48 hrs by SRB assay relative to control. Type of series: functional. Particulars: MCF7, 48 h, dose 1 10^-5M, read-out: Activity.
A further series deals with MDA-MB-468. Description: Anticancer activity against human MDA-MB-468 cells assessed as cell growth at 10^-5 M incubated for 48 hrs by SRB assay relative to control. Type of series: functional. Particulars: MDA-MB-468, 48 h, dose 1 10^-5M, read-out: Activity.
Series [6] is described as follows: Selectivity index, ratio of IC50 for […] to IC50 for human K562 cells. The format is functional.
Series [7] is described as follows: Selectivity index, ratio of IC50 for human HaCaT cells to IC50 for human K562 cells. Type of series: toxicity. To be noted: HaCaT cells and K562 cells, read-out: Ratio IC50.
In series [8] the target is NAD-dependent protein deacetylase sirtuin-2 (Homo sapiens, UniProt Q8IXJ6). Description: Inhibition of N-terminal His6-tagged human Sirt2 (25 to 389 residues) using ZMAL as substrate incubated for 4 hrs by fluorescence based assay.
The next series has as its system HeLa. Description: Antiproliferative activity against human HeLa cells assessed as inhibition of cell proliferation measured after 48 hrs by MTT assay. Type of series: functional, cell-based.

For orientation: IC50 means the midpoint of a concentration-inhibition curve.

Sequence of NAD-dependent protein deacetylase sirtuin-2 (Q8IXJ6 whole entry, the tested form may be a part): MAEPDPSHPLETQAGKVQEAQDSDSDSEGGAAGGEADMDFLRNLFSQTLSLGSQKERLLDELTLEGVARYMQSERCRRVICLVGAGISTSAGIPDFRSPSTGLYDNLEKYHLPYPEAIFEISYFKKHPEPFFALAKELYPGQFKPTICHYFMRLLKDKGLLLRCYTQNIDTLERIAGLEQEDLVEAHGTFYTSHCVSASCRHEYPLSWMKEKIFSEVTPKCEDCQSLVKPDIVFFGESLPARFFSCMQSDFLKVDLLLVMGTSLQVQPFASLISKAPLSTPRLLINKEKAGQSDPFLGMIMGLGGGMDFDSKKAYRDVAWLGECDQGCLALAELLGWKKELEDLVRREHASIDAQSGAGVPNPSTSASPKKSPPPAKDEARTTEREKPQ

As to `CC(C)c1nnnn1-c1ccc(C(=O)Nc2ncc(Cc3ccccc3)s2)cc1`, the IC50 with K562 [1] is above 100 µM. Further, the IC50 at 72 h in series [2] was 5.59 µM; in series [3] it was above 100 µM; in series [4], 8.94 µM.
In the case of `Cc1nnnn1-c1ccc(C(=O)Nc2ncc(Cc3ccccc3)s2)cc1`, in the series with K562 [1], the IC50 was above 100 µM. In addition, the IC50 at 72 h in series [2] is 6 µM; in series [3], above 100 µM; in [4] it was 3.61 µM.
With `Cc1cccc(Cc2cnc(NC(=O)c3ccc(-n4cnnn4)cc3)s2)c1`, the growth at 10 µM with K562 [5] was 19.2%; in the series on NCI-H460, 25.8%; in the series with HCT-15, 34.6%; in the series on KM12 it was 30.2%; with LOX IMVI, 30.1%; in the series on M14 it was 33.8%. In addition, the growth at 10 µM in the series with MDA-MB-435 worked out at 27.7%; in the series with UACC-62 it was 12%; with ACHN, 30.7%; in the series with CAKI-1 it was 35.2%; in the series on MCF7, 30.5%; with MDA-MB-468, 34.2%. Besides, the IC50 in the series on K562 [1] amounted to 20.1 µM. The values for the IC50 at 72 h in [2], in series [3] and in [4] were above 100 µM, above 100 µM and 43.2 µM, respectively. In addition, in series [6], the “Ratio IC50” value is on record as 2.1.
In the case of `Cc1cccc(Cc2cnc(NC(=O)c3cccc(-n4cnnn4)c3)s2)c1`, the IC50 in the series with K562 [1] was above 100 µM. Moreover, the figures for the IC50 at 72 h in series [2], in series [3] and in series [4] were above 100 µM, above 100 µM and 52.8 µM, respectively.
Regarding `O=C(Nc1ncc(Cc2ccccc2)s1)c1ccc(-n2cnnn2)cc1`, the IC50 with K562 [1] is 8.3 µM. Further, the IC50 at 72 h in series [2] is 33 µM; in series [3], above 100 µM; in [4], 48.1 µM. Besides, the selectivity ratio in series [7] came to 4.
For `Cc1ccc(Cc2cnc(NC(=O)c3ccc(-n4cnnn4)cc3)s2)cc1`, the growth at 10 µM in the series on K562 [5] stood at 22.9%; with LOX IMVI, 39.4%; with UACC-62 it was 20.3%; in the series with ACHN, 39.5%; in the series on CAKI-1, 39.1%. For the same molecule, in the series on K562 [1], the IC50 was found to be 8 µM. Besides, the IC50 at 72 h is 52.6 µM in series [2], above 100 µM in series [3] and 59.8 µM in [4]. In addition, in [7], the selectivity ratio amounted to 6.6.
`COCCn1cc(COc2cccc(Cc3cnc(NC(=O)CSc4nc(C)cc(C)n4)s3)c2)nn1`: the IC50 in [8] amounted to 0.118 µM.
Turning to `O=C(Nc1ncc(Cc2ccccc2)s1)c1ccc(-n2cnnn2)cc1O`, in the series on K562 [1], the IC50 was above 100 µM. Also, the values for the IC50 at 72 h in [2], in series [3] and in [4] were above 100 µM, above 100 µM and 22.2 µM, respectively.
With `CC(C)(C)c1nc(NC(=O)CN2CCN(c3ccc(O)cc3)CC2)sc1Cc1ccc(Cl)cc1`, the IC50 in the series on HeLa is 1.6 µM.
